Values of other authors as cited in paper PMC11599114 (Viruses, 2024).
Read-outs that look alike come from different tables or passages of the source.

Columns and labels:
[1] = test system: HCoV-229E; details: Vero
[2] = test system: HCoV-OC43; details: HCoV-OC43, Vero
[3] = test system: HSV-2; details: HSV-2, Vero
[4] = test system: SARS-CoV-2; details: SARS-CoV-2, Vero
[5] = test system: HSV-1; details: HSV-1, Vero
[6] = test system: Measles virus(MeV); details: VERO/hSLAM
[7] = test system: influenza virus(H1N1,VR-1894); details: H1N1 VR-1894, MDKC
[8] = test system: RSV; details: fusion, ref AVPdb
[9] = test system: INFVA; parameters: method as in AVPdb; details: ref AVPdb; for IC50: virus entry; for EC50: fusion
[10] = test system: human parainfluenza virus 3 (HPIV3); parameters: method as in ref 16973588; details: HPIV3 fusion, HeLa
[11] = test system: human parainfluenza virus 3 (HPIV3); parameters: method as in ref 16973588; details: HPIV3 infection, HeLa
[12] = test system: influenza A virus(H1N1); parameters: method as in 2 sources
[13] = test system: SARS-CoV-2; parameters: method as in ref 34328726; details: for IC50: SARS-CoV-2 entry, HEK293T/ACE2
[14] = test system: A/Roma-ISS/02/08 H1N1; details: A/Roma-ISS/02/08 H1N1, MDCK
[15] = test system: influenza A virus(H3N2); parameters: method as in 2 sources; details: H3N2, MDCK
[16] = test system: SARS-CoV; details: 100 µM
[17] = test system: Hendra virus(HeV)
[18] = test system: Hendra virus(HeV); remark: listed apart in the source

For FVPWFSKFlXRIL [DRAVPe00380], the IC90 [1] is given as > 50 µM, the IC90 [2] is given as 27.7 µM and the IC90 [3] is given as 19 µM. The IC90 [4] was 25 µM and the IC90 [5] was 15.9 µM.

In the case of FVPWFSKFlXRILC [DRAVPe00389], the IC90 [6] is listed as > 50 µM, the IC90 [4] is listed as 12 µM and the IC90 [7] is listed as 10 µM. For the same substance, the IC90 [5] was 11.1 µM.

For FVPWFSKFlXRILGGC [DRAVPe00390], the IC90 [6] is listed as > 50 µM, the IC90 [4] is listed as 50 µM and the IC90 [7] is listed as 49.9 µM. The IC90 [5] was 48 µM.

In the case of FVPWFSKFlwRIL [DRAVPe00386], the IC90 [1] is given as 50 µM, the IC90 [2] is given as 17.4 µM and the IC90 [3] is given as 9.76 µM. The IC90 [4] was 14.8 µM and the IC90 [5] was 7.89 µM.

In the case of FVPWFSKFlxRIL [DRAVPe00382], the IC90 [1] is given as > 50 µM, the IC90 [2] is given as 24.7 µM and the IC90 [3] is given as 11.9 µM. For the same substance, the IC90 [4] was 17.4 µM and the IC90 [5] was 12.8 µM.

In the case of “FYDPLVFPSDEFDASISQVNEKINQSLAFIRKSDE [AVP0130]”, the IC50/EC50 [8] is given as 20 µM.

For GAWYKGRARPVSAVA [AVP0963], the IC50 [9] is listed as 53000 nM.

In the case of GWWYKGRARAVSAVA [AVP0964], the IC50 [9] is listed as 89000 nM.

In the case of GWWYKGRARPVSAVA [AVP0961], the IC50 [9] is given as 3200 nM.

For “IDISIELNKAKSDLEESKEWIRRSNQKLDSIGNWH [DRAVPe00930]”, the IC50 [10] is listed as 1.5 µM and the IC50 [11] is listed as 0.5 µM.

In the case of “IINFYDPLVFPSDEFDASISQVNEKINQSLAFIRK [AVP0127]”, the IC50/EC50 [8] is listed as 91 µM.

In the case of “INFYDPLVFPSDEFDASISQVNEKINQSLAFIRKS [AVP0128]”, the IC50/EC50 [8] is listed as 93 µM.

For IPLRGAFINGRWDSQCHRFS [DRAVPe01801], the IC50 ([12]; A(H1N1), MDCK) is given as 12.9 µg/mL.

In the case of IYALLENAEDYNLVN [DRAVPe01985], the IC50 [13] is given as 0.009 ± 0.004 µM and the inhibition ([13]; at 25 µM) is given as 100%.

For KANEGLTWNSLKDK [DRAVPe01644], the EC50 [14] is given as 0.001 ± 0.00015 µM.

In the case of KFFRKKSVKK [DRAVPe01822], the EC50 ([12]; H1N1, MDCK) is given as 5.2 ± 0.9 µM and the EC50 [15] is given as 7.36 ± 1.2 µM.

For “LVFPSDEFDASISQVNEKINQSLAFIRKSDELLHN [AVP0134]”, the IC50/EC50 [8] is listed as 9 µM.

In the case of “NFYDPLVFPSDEFDASISQVNEKINQSLAFIRKSD [AVP0129]”, the IC50/EC50 [8] is listed as >100 µM.

In the case of “NFYDPLVFPSDEFDASISQVNEKINQSLASIRKSDELLHNVNAGK [AVP1972]”, the IC50/EC50 [8] is listed as 2.93 µM.

For NGESSADWAKN [AVP1196], the EC50 [9] is listed as 225 ± 1.16 pM.

For NHEAEDLFY [DRAVPe01629], the inhibition [16] is listed as 30%.

For “PLVFPSDEFDASISQVNEKINQSLAFIRKSDELLH [AVP0133]”, the IC50/EC50 [8] is listed as 30 µM.

In the case of “PSDEFDASISQVNEKINQSLAFIRKSDELLHNVNA [AVP0137]”, the IC50/EC50 [8] is given as 6 µM.

For QDKHEEDYQMYNKGDKED [DRAVPe01982], the IC50 [13] is given as 0.018 ± 0.002 µM, the inhibition ([13]; at 0.39 µM) is given as 95% and the inhibition ([13]; at 25 µM) is given as 100%.

In the case of RAVWRHSVATPSHSV [AVP0969], the IC50 [9] is listed as > 500000 nM.

In the case of RRKKAAVALLPAVLLALLAP [AVP0554], the IC50 [9] is given as 8000 nM.

In the case of RRKKIFYFFR [AVP1759], the IC50 [9] is given as 155 nM.

In the case of RRKKWLVFFVIFYFFR [AVP1754], the IC50 [9] is listed as 0.04 nM.

For “SDEFDASISQVNEKINQSLAFIRKSDELLHNVNAG [AVP0138]”, the IC50/EC50 [8] is given as 6 µM.

In the case of “SIELNKAKSDLEESKEWIRRSNQKLDSI [DRAVPe01316]”, the IC50 [17] is given as > 10 µM, the IC50 [10] is given as > 10 µM and the IC50 [18] is given as > 1 µM. For the same substance, the IC50 [11] was > 10 µM.

In the case of SKHSSLDCVLRP [AVP1194], the EC50 [9] is listed as 4 ± 0.37 pM.

In the case of SRDKHEEHEKENDRGQ [DRAVPe01986], the IC50 [13] is listed as 0.01 ± 0.005 µM and the inhibition ([13]; at 25 µM) is listed as 100%.

For “VALDPIDISIELNKAKSDLEESKEWIRR [DRAVPe01315]”, the IC50 [17] is listed as > 10 µM, the IC50 [10] is listed as > 10 µM and the IC50 [18] is listed as > 1 µM. For the same substance, the IC50 [11] was > 10 µM.

For “VALDPIDISIELNKAKSDLEESKEWIRRSNQKLDSD [DRAVPe01313]”, the IC50 [10] is given as 0.35 µM and the IC50 [11] is given as 0.5 µM.

For “VALDPIDISIELNKAKSDLEESKEWIRRSNQKLDSI [DRAVPe01311]”, the IC50 [10] is given as 0.5 µM and the IC50 [11] is given as 0.5 µM.

In the case of “VANDPIDISIELNKAKSDLEESKEWIRRSNQKLDSD [DRAVPe01314]”, the IC50 [17] is given as > 10 µM, the IC50 [10] is given as 0.75 µM and the IC50 [18] is given as > 1 µM. The IC50 [11] was 1.1 µM.

In the case of “VANDPIDISIELNKAKSDLEESKEWIRRSNQKLDSI [DRAVPe01312]”, the IC50 [10] is listed as 0.75 µM and the IC50 [11] is listed as 1.1 µM.

For “VFPSDEFDASISQVNEKINQSLAFIRKSDELLHNV [AVP0135]”, the IC50/EC50 [8] is listed as 19 µM.

In the case of WLVFFVIAYFAR [AVP1755], the IC50 [9] is listed as 0.87 nM.

For WLVFFVIFYFFR [AVP1756], the IC50 [9] is given as 93.6 nM.

For WLVFFVIFYFFRRRKK [AVP1753], the IC50 [9] is given as 0.03 nM.

In the case of WLVFFVRRKK [AVP1806], the IC50 [9] is listed as 638 nM.

In the case of “YDPLVFPSDEFDASISQVNEKINQSLAFIRKSDEL [AVP0131]”, the IC50/EC50 [8] is given as 6 µM.
